Key:
[1] = system: A549-ACE2 infected with SARS-CoV-2; test: morphology score (similarity to uninfected cells); higher = more like uninfected cells; conditions: 0.3 µM; 24 h
Calu-3 [2] = test: drug sensitivity score (DSS) for viability; higher = more toxic; extreme values may be limits of the assay; conditions: 72 h
U2OS [3] = test: as above; conditions: 72 h
HepG2 [4] = test: as above; conditions: 72 h
Vero E6 [5] = test: as above; conditions: 72 h
Caco-2 [6] = test: as above; conditions: 72 h
[7] = system: A549-ACE2 infected with SARS-CoV-2; test: SARS-CoV-2 infection rate relative to DMSO; higher = more infection; conditions: 0.3 µM; 24 h
A549-ACE2 [8] = test: phospholipidosis EC50; higher = less potent phospholipidosis inducer
Calu-3 [9] = test: cell viability relative to DMSO; higher = less toxic; conditions: 72 h
U2OS [10] = test: as above; conditions: 72 h
HepG2 [11] = test: as above; conditions: 72 h
Vero E6 [12] = test: as above; conditions: 72 h
Caco-2 [13] = test: as above; conditions: 72 h
A549-ACE2 [14] = test: drug-induced phospholipidosis relative to tamoxifen; higher = more phospholipidosis
Calu-3 [15] = test: relative viability EC50 (midpoint between 100% and the lowest measured viability); higher = less toxic; conditions: 72 h
U2OS [16] = test: as above; conditions: 72 h
Vero E6 [17] = test: as above; conditions: 72 h
[18] = system: A549-ACE2 infected with SARS-CoV-2; test: cell count relative to DMSO; higher = less toxic; conditions: 0.3 µM; 24 h

CCCCCCCCNC(=O)/C(C#N)=C/c1cn(CCCN(C)C)c2ccccc12 [dynole-34-2]
Conditions | SARS-CoV-2 infection rate [%] | cell count [%] | drug sensitivity score | morphology score | relative viability EC50 [µM]
Caco-2 [6] | – | – | 2.5 | – | –
Calu-3 [2] | – | – | 6.6 | – | –
Calu-3 [15] | – | – | – | – | 2.61
HepG2 [4] | – | – | 2.6 | – | –
U2OS [3] | – | – | 5.1 | – | –
U2OS [16] | – | – | – | – | 3.29
Vero E6 [5] | – | – | 0 | – | –
Vero E6 [17] | – | – | – | – | > 10
[1] | – | – | – | -0.05 | –
[7] | 105 | – | – | – | –
[18] | – | 97 | – | – | –

Conditions | cell viability, 1 nM [%] | cell viability, 10 nM [%] | cell viability, 100 nM [%] | cell viability, 1000 nM [%] | cell viability, 10000 nM [%] | phospholipidosis EC50, 24 h [µM] | phospholipidosis EC50, 48 h [µM] | phospholipidosis EC50, 72 h [µM]
A549-ACE2 [8] | – | – | – | – | – | 0.825 | 3.88 | 6.62
Caco-2 [13] | 97.3 | 100 | 103 | 95.5 | 63.9 | – | – | –
Calu-3 [9] | 98.3 | 96.7 | 105 | 93.1 | -0.1 | – | – | –
HepG2 [11] | 96.5 | 93.4 | 97.9 | 95.8 | 62 | – | – | –
U2OS [10] | 104 | 104 | 99 | 102 | 5.2 | – | – | –
Vero E6 [12] | 104 | 102 | 102 | 98.6 | 91.2 | – | – | –

drug-induced phospholipidosis [%], A549-ACE2 [14]
Conditions | 0.3 µM | 0.833333 µM | 3.33333 µM | 6.66667 µM | 10 µM
24 h | 1.06 | 56.4 | 87.1 | 96.8 | 112
48 h | 1.92 | 50.3 | 46.7 | 92 | 119
72 h | 2.02 | 41.5 | 27.6 | 81.2 | 120

From the supplement of paper PMC13380429
